This note sets out measurements from patent publication US8853452B2, “Compounds, their syntheses, compositions, and methods to treat cancer” (The Administrators of the Tulane Educational Fund, priority 2009, dated 2014).

In data set [1] the test system is MCF10A (normal breast epithelial) cells. In words: Proliferation assay in normal breast epithelial cells. It counts as cell-based. The note with it: for effect on normal breast epithelial proliferation: MCF10A, even at 100 μM, 24 h. On the procedure: MCF10A cells were treated with varying concentrations of drug (0.1-100 μM) for 24 h. The values are the mean±SE of four independent experiments.
The selectivity of compound II-3 and C8-ceramide to inhibit cell growth of cancer cells was determined by performing proliferation assays using MCF10A (normal breast epithelial) cells (FIG. 18).

The test system of data set [2] is MDA-MB-231 cells. As to the kind of experiment: Cellular sphingolipid species by lipidomics analysis. Format: cell-based, Human. The note with it: 10 μM, 24 h. The protocol:
(§1) (A) MCF-7, (B) MDA-MB-231, and (C) MCF-7TN-R cells were treated with ceramide (10 μM) and II-3 (10 μM) for 24 h. The values are the mean±SE of two independent experiments. S2 Endogenous lipid levels were quantified by mass spectrometry (Lipidomics Core, Medical University of South Carolina) according to published methods. Briefly, cells were collected, fortified with internal standards and extracted with ethyl acetate/isopropyl alcohol. ESI/MS/MS analyses of sphingoid bases, sphingoid base 1-phosphates, ceramides, and sphingomyelins were performed on a Thermo Finnigan TSQ 7000 triple quadrupole mass spectrometer.
(§2) The effect of compound II-3 on endogenous sphingolipid levels was compared to C8-ceramide using Lipidomics Analysis (FIG. 19-21). Dihydrosphingosine is elevated following compound II-3 treatment, with almost a 50 fold increase in MCF-7TN-R cells. Sphingosine-1-phosphate, the proliferative metabolite of ceramide, decreased in all three cell lines. C8-ceramide had the opposite effect and increased sphingosine-1-phosphate levels.

The test system of data set [3] is MCF-7TN-R cells. The data set is described as above. It counts as cell-based, Human. The conditions noted are these: 10 μM, 24 h. On the procedure:
as §1, §2

Data set [4] relates to MCF-7 cells. The description is as above. Format: cell-based, Human. The conditions noted are these: 10 μM, 24 h. The protocol: as §1, §2
In data set [5] the test system is MDA-MB-231 cells. As to the kind of experiment: Clonogenic survival assay. It counts as cell-based, Human. On the procedure:
(§3) Human cancer cell lines derived from breast, MCF-7, endocrine-resistant MDA-MB-231, and chemoresistant MCF-7TN-R were cultured in 75 cm^2 culture flasks in DMEM (Invitrogen, Co.) supplemented with 10% FBS (Life Technologies, Inc., Gaithersburg, Md.), basic minimum MEM essential (50×, Invitrogen Co.) and MEM non-essential (100×, Invitrogen, Co.) amino acids, sodium pyruvate (100× Invitrogen Co.), antimicotic-antibiotic (10,000 U/mL penicillin G sodium; 10,000 μg/mL streptomycin sulphate; 25 μg/mL amphotericin B as Fungizone®), and human recombinant insulin (4 mg/mL Invitrogen Co). Culture flasks were maintained in a tissue culture incubator in a humidified atmosphere of 5% CO2 and 95% air at 37° C.
(§4) MCF-7, MDA-MB-231, or MCF-7TN-R cells were plated in 6-well plates at 1000 cells per well. Twenty-four hours later, cells were treated with varying concentrations of the compound and then monitored microscopically for colony growth. Ten days later the cells were fixed with 3% glutaraldehyde. Following fixation for 15 min, the plates were washed and stained with a 0.4% solution of crystal violet in 20% methanol for 30 min, washed with PBS, and air-dried. Colonies of 30 cells were counted as positive. Results are normalized to percent clonogenic survival from untreated control cells. Statistical analysis of IC50 values were calculated from concentration-response curves using GraphPad Prism 5.0 (Graphpad Software, San Diego, Calif.), using with the equation: Y=Bottom+(Top−bottom)/1+10 Log EC50−X.
(§5) Compounds II-1, II-2, II-3, II-4, II-5, and II-6 were compared for their inhibitory effect on breast cancer clonogenic survival. Cells were treated with varying concentration of compound, ranging from 0.1 μM-20 μM for 10 days. […] At endpoint, cell colonies were fixed, stained and recorded as percent vehicle control.

Data set [6] has as its system MCF-7TN-R cells. As to the kind of experiment: Clonogenic survival assay. It counts as cell-based, Human. The protocol: as §3, §4, §5
The test system of data set [7] is MCF-7 cells. As to the kind of experiment: Clonogenic survival assay. Format: cell-based, Human. The protocol: as §3, §4, §5
Data set [8] deals with MCF-7 cells. In words: Apoptosis ELISA assay (Cell Death Detection ELISA, Roche). Format: cell-based, Human. The conditions noted are these: double the IC50 concentration (ceramide 8.3 μM, II-3 9.4 μM). On the procedure:
The induction of apoptosis by compounds was assayed using the nucleosome ELISA kit (Roche). The kit quantified formation of cytoplasmic histone-associated oligonucleosome DNA fragments resulting from apoptosis. […] The induction of apoptosis was determined by the amount of nucleosomes in the cytoplasm per the manufacturer's protocol. The values are the mean±SE of three independent experiments.
The ability of compound II-3 to induce apoptosis in MCF-7 cells was tested. Using a Cell Death Detection ELISA (Roche) to assess apoptosis, IC50 was measured for compound II-3 and C8-ceramide.

Data set [9] relates to MDA-MB-231 cells. In words: Viability assay using MTT. It counts as cell-based. The note with it: Homo sapiens, 24 h, compounds 0.1 to 100 μM, unit inferred, read-out: MDA-MB-231 (IC50), Viability Assays. The protocol:
as §3
(§6) The effect of ceramide and compounds on cell growth was determined using MTT viability assays. MCF-7, MDA-MB-231, or MCF-7TN-R cells were plated at […] cells per well in a 96-well plate in phenol-free DMEM supplemented with 5% FBS and allowed to adhere overnight. Cells were then treated with compounds I-1, I-2, I-3, or I-4 (ranging from 0.1 to 100 μM) for 24 h. Following that treatment, 20 μL of MTT (5 mg/ml) reagent was added to each well prior to incubation for 4 hr. Cells were then lysed with 20% SDS in 50% dimethylformamide. The pH and absorbances were read on an EL×808 Microtek plate reader (Winooski, Vt.) at 550 nm, with a reference wavelength of 630 nm.
(§7) Statistical analysis of IC50 values were calculated from concentration-response curves using GraphPad Prism 5.0 (Graphpad Software, San Diego, Calif.), using with the equation: Y=Bottom+(Top−bottom)/1+10 Log EC50−X assuming a standard slope, where the response goes from 10% to 90% of maximal as X increases over two log units. Differences in IC50 were compared using Student's unpaired t-test with p<0.05 as the limit of statistical significance. Experiments comparing multiple concentrations to the control were tested with one-way ANOVA with Bonferroni post-test to compare individual concentrations. All statistical analysis were done using GraphPad Prism 5.0. […].

The test system of data set [10] is MCF-7TN-R cells. As to the kind of experiment: Viability assay using MTT. The note with it: Homo sapiens, 24 h, compounds 0.1 to 100 μM, unit inferred, read-out: MCF-7TN-R (IC50), Viability Assays. Format: cell-based. On the procedure:
as §3, §6, §7

In data set [11] the test system is MCF-7 cells. In words: Viability assay using MTT. Format: cell-based. The note with it: Homo sapiens, MCF7, 24 h, compounds 0.1 to 100 μM, unit inferred, read-out: MCF-7 (IC50), Viability Assays. The protocol: as §3, §6, §7
Data set [12] relates to MCF-7TN-R cells. As to the kind of experiment: Proliferation assay. It counts as cell-based. The conditions noted are these: Homo sapiens; FIG. 17; read-out: anti-proliferative IC50, MCF-7TN-R. On the procedure:
(§8) The ability of compound II-3 to block proliferation as an anti-survival mechanism in addition to apoptosis was determined by measuring anti-proliferative effects.
Nineteen compounds were synthesized using fifteen benzaldehydes as starting material. […] These were tested as potential anti-proliferative agents in MCF-7TN-R cells, and the structure-activity relationships were studied using several parameters. […] In compounds containing a methyl group, a significant increase of the PAC (C) in o-substituted compound was detected, which may account for the increased anti-proliferation activity. Ortho-substituted analogs with electron withdrawing groups by induction can have beneficial effects, and PAC (C) can be a useful predictor of the structural property of the molecule.

Data set [13] has as its system MCF-7 cell line. In words: Proliferation assay. The note with it: Homo sapiens, MCF7; FIG. 15; read-out: anti-proliferative IC50, MCF-7. Format: cell-based. On the procedure:
as §8

Data set [14] has as its system MDA-MB-231 cell line. In words: Proliferation assay. Format: cell-based. The note with it: Homo sapiens, FIG. 16, read-out: anti-proliferative IC50, MDA-MB-231. On the procedure: as §8
Setting [15] is: Table 2, 0.1 μM-20 μM for 10 days, read-out: MDA-MB-231 (IC50), clonogenic survival.
Where [16] appears, read: Table 2, 0.1 μM-20 μM for 10 days, read-out: MCF-7-TNR (IC50), clonogenic survival.
[17] abbreviates: Table 2, 0.1 μM-20 μM for 10 days, read-out: MCF-7 (IC50), clonogenic survival.
Setting [18] is: Homo sapiens, MDA-MB-231, 240 h, Table 1B, 10 days, read-out: MDA-MB-231 (IC50), Clonogenic Survival Assays.
The mark [19] stands for this setting: Homo sapiens, 240 h, Table 1B, 10 days, read-out: MCF-7TN-R (IC50), Clonogenic Survival Assays.
The mark [20] stands for this setting: Homo sapiens, MCF7, 240 h, Table 1B, 10 days, read-out: MCF-7 (IC50), Clonogenic Survival Assays.

SMILES strings stand for the structures.

`CCCCCCCCCCCCC/C=C/[C@@H](O)[C@H](CO)NC(=O)CCCCCCC` [Compound C8-Cer, D-erythro N-octanoyl sphingosine, reference compound]: the “effect on normal breast epithelial proliferation” value in data set [1] is “little effect”. The Sphingosine-1-phosphate level result in [2], in [3] and in data set [4] was “increased” throughout. The IC50 in data set [5] (setting [15]) came out at 3 µM; in data set [6] (setting [16]), 8.6 µM; in data set [7] (setting [17]), 4.2 µM. In addition, in data set [8] (24 hours), the “fold induction in apoptosis” value turned out to be 5.0 fold.

Consider `CCCCCCCCCCCCC/C=C/[C@@H](O)[C@H](CO)/N=C/c1ccccc1` [Compound I-3, (2S,3R,E)-2-((E)-benzylideneamino)octadec-4-ene-1,3-diol], for which the IC50 is 1.4 µM in data set [5] (setting [18]); 0.1 µM in [6] (setting [19]); 1.7 µM in data set [7] (setting [20]); 4.8 µM in data set [9]; 3.6 µM in data set [10]; 9 µM in data set [11].

Take `CCCCCCCCCCCCC/C=C/[C@@H](O)[C@H](CO)NC(=O)C(C)(C)C` [Compound I-4, N-((2S,3R,E)-1,3-dihydroxyoctadec-4-en-2-yl)pivalamide]: the IC50 in data set [5] (setting [18]) worked out at 0.5 µM; in data set [6] (setting [19]) it was 0.6 µM; in data set [7] (setting [20]), 1.5 µM; in data set [9], 8 µM; in data set [10], 4.2 µM; in data set [11] it was 13.5 µM.

As for `CCCCCCCCCCCCCCNC(=O)[C@H](CO)N=Cc1ccccc1` [II-3, (S)-2-(benzylideneamino)-3-hydroxy-N-tetradecylpropanamide], the “100 μM (little effect in MCF10A) as fold of the IC50 value in chemoresistant cells” value in data set [1] (MCF10A versus chemoresistant cells) is listed as “greater than 50 fold”. In addition, in data set [1], the “effect on normal breast epithelial proliferation” value is “little effect”. The Sphingosine-1-phosphate level entry in [2], in data set [3] and in data set [4] was “decreased” each time. In data set [3], this compound yielded a Dihydrosphingosine fold increase of approximately 50 fold. Moreover, the IC50 in data set [12] is 1.2 µM; in data set [13], 4.5 µM; in data set [14], 1.8 µM; in data set [5] (Homo sapiens, MDA-MB-231, 240 h, Table 2, 0.1 μM-20 μM for 10 days, read-out: MDA-MB-231 (IC50), clonogenic survival), 2.35 µM; in [5] (setting [15]), 2.4 µM; in data set [6] (Homo sapiens, 240 h, Table 2, 0.1 μM-20 μM for 10 days, read-out: MCF-7-TNR (IC50), clonogenic survival), 7.67 µM. Moreover, the IC50 in data set [6] (setting [16]) is 7.7 µM; in [7] (Homo sapiens, MCF7, 240 h, Table 2, 0.1 μM-20 μM for 10 days, read-out: MCF-7 (IC50), clonogenic survival) it was 4.69 µM; in [7] (setting [17]), 4.7 µM. In data set [8] (Homo sapiens, MCF7, 24 hours), this compound yielded a fold induction at 9.4 µM of 5.4.
